The values below come from ChEMBL document CHEMBL1201862, “PubChem BioAssay data set” (2004).

The source made the active and inactive calls. Bounds are passed on as bounds.

Assay [1] is described as follows: NIH-3T3 fibroblast cytotoxicity, dose response, cytotoxicity control, cell-based, fluorescence, Alamar Blue, secondary assay (AID 2327).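 Note: NIH-3T3 mouse fibroblasts cultured with fluconazole at 8 µg/mL.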 The class given is functional. On the technique in general: The colour change of resazurin is a common sign of viable cells or microbes.
Assay [2] concerns the target Heat shock protein HSP 90-alpha (Homo sapiens, UniProt P07900). The class given is functional, organism-based.
The test system of a further assay is INS1. Description: INS-1E survival protection against cytokine death – cell-based, luminescence, retest, dose response (AID 449756).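 Note: cell death triggered by IL-1 beta plus TNF-alpha plus IFN-gamma mixture; protective hits raise ATP signal compared with cytokine alone wells.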 The class given is functional. As to conditions: Rattus norvegicus.
Assay [3] has as its target T1, Replicative DNA helicase DnaB (Mycobacterium tuberculosis, UniProt P9WMR3).
T1 sequence (P9WMR3 whole entry): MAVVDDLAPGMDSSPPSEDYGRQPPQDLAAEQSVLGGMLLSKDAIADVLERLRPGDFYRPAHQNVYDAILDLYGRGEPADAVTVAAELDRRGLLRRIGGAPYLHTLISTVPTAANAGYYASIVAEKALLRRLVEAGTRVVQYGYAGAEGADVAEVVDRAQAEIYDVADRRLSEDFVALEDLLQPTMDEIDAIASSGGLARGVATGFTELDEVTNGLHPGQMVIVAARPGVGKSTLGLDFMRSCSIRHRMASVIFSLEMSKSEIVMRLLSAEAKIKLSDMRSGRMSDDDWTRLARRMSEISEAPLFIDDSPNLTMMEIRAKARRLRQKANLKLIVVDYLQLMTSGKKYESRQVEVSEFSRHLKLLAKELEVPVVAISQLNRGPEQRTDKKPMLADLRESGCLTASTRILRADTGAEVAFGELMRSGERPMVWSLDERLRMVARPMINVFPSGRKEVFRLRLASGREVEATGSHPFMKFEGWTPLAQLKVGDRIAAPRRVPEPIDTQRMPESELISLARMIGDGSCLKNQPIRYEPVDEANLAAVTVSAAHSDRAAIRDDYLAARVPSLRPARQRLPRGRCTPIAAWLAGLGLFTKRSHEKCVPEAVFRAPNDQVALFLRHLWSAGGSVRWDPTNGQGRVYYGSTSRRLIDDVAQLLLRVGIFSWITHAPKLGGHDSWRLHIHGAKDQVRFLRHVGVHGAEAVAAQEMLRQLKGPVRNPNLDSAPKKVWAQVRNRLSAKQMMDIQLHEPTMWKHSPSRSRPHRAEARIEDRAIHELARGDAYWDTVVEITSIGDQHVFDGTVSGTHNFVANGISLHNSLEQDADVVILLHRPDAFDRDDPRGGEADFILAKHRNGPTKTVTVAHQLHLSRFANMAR
The assay can be described thus: DnaB intein splicing inhibitors, dose response, biochemical, cell-free fluorescence (AID 449749). The assay is classed as functional.

Another assay addresses T2, Protein RecA (Mycobacterium tuberculosis, UniProt P9WHJ3).
T2 sequence (P9WHJ3 whole entry): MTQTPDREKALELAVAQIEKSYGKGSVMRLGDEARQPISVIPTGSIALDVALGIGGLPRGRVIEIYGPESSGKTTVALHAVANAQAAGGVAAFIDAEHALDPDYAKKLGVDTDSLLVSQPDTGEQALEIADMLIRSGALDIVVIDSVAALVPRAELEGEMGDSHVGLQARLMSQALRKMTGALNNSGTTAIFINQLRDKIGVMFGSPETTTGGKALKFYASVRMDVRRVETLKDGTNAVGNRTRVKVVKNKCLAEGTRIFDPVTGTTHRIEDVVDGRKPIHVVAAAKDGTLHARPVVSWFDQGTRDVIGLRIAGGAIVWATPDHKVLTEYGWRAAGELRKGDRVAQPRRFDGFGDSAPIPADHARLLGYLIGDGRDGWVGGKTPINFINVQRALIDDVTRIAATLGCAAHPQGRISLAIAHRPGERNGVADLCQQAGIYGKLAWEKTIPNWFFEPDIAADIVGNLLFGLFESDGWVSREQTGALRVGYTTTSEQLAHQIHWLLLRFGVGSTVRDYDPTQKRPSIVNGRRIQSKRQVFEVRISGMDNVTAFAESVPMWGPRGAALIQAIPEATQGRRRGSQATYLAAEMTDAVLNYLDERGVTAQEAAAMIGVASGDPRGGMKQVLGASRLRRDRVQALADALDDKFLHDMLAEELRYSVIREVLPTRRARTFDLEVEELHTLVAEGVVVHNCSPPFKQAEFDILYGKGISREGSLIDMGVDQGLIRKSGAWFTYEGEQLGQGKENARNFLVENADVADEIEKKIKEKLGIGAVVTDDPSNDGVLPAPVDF
The assay can be described thus: Fluorescence Cell-Free Homogeneous Dose Retest to Identify Inhibitors of RecA-Intein Splicing Activity. [Related pubchem assays (depositor defined):AID2097, AID2223, AID489010, AID492950]. The class given is functional.

Regarding `CC(C)CC(=O)NC(c1cccs1)c1ccc2cccnc2c1O` (configuration not stated), the concentration giving a half-maximal response (EC50) in assay [1] is 24.3 µM (active). The concentration at half-maximal activity (AC50) in assay [2] is 3.78 µM (active); in the assay with INS1 it was 0.862 µM (active).
As to `CCOC(=O)c1ccc(NC2=CC(=O)C(=O)c3ccccc32)cc1`, in assay [3], the AC50 was > 380 µM (inactive). For the same compound, the EC50 on Protein RecA is 3.24 µM (active).
In the case of `OC(CNCCC1C=Nc2ccccc21)Cn1c2ccc(Cl)cc2c2cc(Cl)ccc21` (configuration not stated), the results for the EC50 (in assay [1]; on Protein RecA) were 14.3 µM (inconclusive) and 9.52 µM (active), respectively. The concentration at half-maximal activity (AC50) in assay [3] was 6.51 µM (active); in assay [2], 8.15 µM (active); in the assay on INS1, 7.32 µM (active).
Turning to `CCCCCCCCCCCCCCCC[N+](C)(C)C`, the results for the EC50 (in assay [1]; on Protein RecA) were > 150 µM (inconclusive) and 14.7 µM (active), respectively. Besides, the values for the AC50 (in assay [3]; in assay [2]; in the assay on INS1) were 4.78 µM (active), 8.33 µM (active) and 4.84 µM (active), respectively.
Turning to `Cc1ccccc1-c1cc2c(nn1)-c1ccccc1C2=O`, the AC50 in assay [3] was 6.85 µM (active). Further, the EC50 on Protein RecA was 0.891 µM (active).

One may read the EC50 as the concentration at which the effect is half-maximal. One may read the AC50 as the midpoint of the concentration-response curve, whichever way the signal moves.
